Converted amounts (≈) assume the structure as drawn. Where two headings read alike, the source gives them in different places.
How the values were obtained:
B. subtilis PSB3 = test: MIC, broth microdilution, B. subtilis PSB3; type: cell-based, Bacillus subtilis
Description: (§1) The minimum inhibitory concentration (MIC) was determined using the broth microdilution method according to the antimicrobial susceptibility testing standards of the clinical and laboratory standards institute ([Clinical and Laboratory Standards Institute [CLSI], 2012]). Ultrapure water and non-inoculated broth were used as controls. In one case, a final concentration of 10 μM vancomycin was included with the vancomycin analog or control antibiotic.

E. coli XL-1 blue MRF' = test: MIC, broth microdilution, E. coli XL-1 blue MRF'; type: cell-based, Escherichia coli; conditions: E. coli XL-1 blue MRF'
Description: as §1

E. faecalis VSE 1 = test: MIC, broth microdilution, vancomycin-sensitive E. faecalis (VSE 1); type: cell-based, Enterococcus faecalis; conditions: for MIC: read-out: MIC; for MIC-fold improvement vs. vancomycin: VSE 1
Procedure, shortened: (§2)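 Controls (ultrapure water; broth not inoculated) were included throughout CLSI-compliant broth microdilution. One condition supplemented analogue or comparator with 10 μM vancomycin, final level.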

E. faecalis VRE 6 = test: MIC, broth microdilution, vancomycin-resistant E. faecalis VRE 6 (VanA); type: cell-based, Enterococcus faecalis; conditions: for MIC: read-out: MIC; for MIC-fold improvement vs. vancomycin: VRE 6
Procedure, shortened: as §2

E. faecalis VRE 53 = test: MIC, broth microdilution, vancomycin-resistant E. faecalis VRE 53 (VanA); type: cell-based, Enterococcus faecalis; conditions: for MIC: read-out: MIC; for MIC-fold improvement vs. vancomycin: VRE 53
Procedure, shortened: as §2

E. faecalis VRE 29 = test: MIC, broth microdilution, vancomycin-resistant E. faecalis VRE 29 (VanA); type: cell-based, Enterococcus faecalis; conditions: for MIC: Enterococcus faecalis VRE 29 (vancomycin-resistant), read-out: MIC; for MIC-fold improvement vs. vancomycin: VRE 29, ratio of MIC of vancomycin and MIC of analogue
Procedure, shortened: as §2

E. faecalis VRE 37 = test: MIC, broth microdilution, vancomycin-resistant E. faecalis VRE 37 (VanA); type: cell-based, Enterococcus faecalis; conditions: for MIC: Enterococcus faecalis VRE 37 (vancomycin-resistant), read-out: MIC; for MIC-fold improvement vs. vancomycin: VRE 37, ratio of MIC of vancomycin and MIC of analogue
Procedure, shortened: as §2

[1] = test system: Murine leukemia (L1210) cells; test: Cytostatic activity, L1210 cell proliferation; type: cell-based; conditions: mean ± SD of three experiments; highest concentration tested 250 µM; 2 days; read-out: Toxicity (IC50) L1210
Procedure, shortened: (§3)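 Test compounds, serially diluted, received an equal volume of cell suspension at 300,000–500,000 cells/mL. After 37°C incubation (2 days for L1210, 3 for CEM, 4 for HeLa), cells were enumerated by Coulter counting and 50%-inhibitory concentrations calculated per cell type.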

[2] = test system: human T-lymphocyte (CEM) cells; test: Cytostatic activity, CEM cell proliferation; type: cell-based; conditions: mean ± SD of three experiments; highest concentration tested 250 µM; 3 days; read-out: Toxicity (IC50) CEM
Procedure, shortened: as §3

[3] = test system: human cervix carcinoma (HeLa) cells; test: Cytostatic activity, HeLa cell proliferation; type: cell-based; conditions: mean ± SD of three experiments; highest concentration tested 250 µM; 4 days; read-out: Toxicity (IC50) HeLa
Procedure, shortened: as §3

[4] = test system: L1210, CEM and HeLa cell lines; test: Cytostatic activity, average or summary over L1210, CEM and HeLa; type: cell-based
Procedure, shortened: as §3

[5] = test system: S. aureus VSSA (ATCC 6538); test: MIC, broth microdilution, vancomycin-sensitive S. aureus (VSSA/MSSA, ATCC 6538); type: cell-based, Staphylococcus aureus; conditions: for MIC: Staphylococcus aureus VSSA, read-out: MIC
Procedure, shortened: as §2

S. aureus VISA/HIP5827 = test: MIC, broth microdilution, vancomycin-intermediate S. aureus VISA HIP5827; type: cell-based, Staphylococcus aureus; conditions: for MIC: Staphylococcus aureus VISA/HIP5827, read-out: MIC; for MIC-fold improvement vs. vancomycin: VISA/HIP5827, ratio of MIC of vancomycin and MIC of analogue
Procedure, shortened: as §2

S. aureus VRSA = test: MIC, broth microdilution, vancomycin-resistant S. aureus (VRSA); type: cell-based, Staphylococcus aureus; conditions: for MIC: Staphylococcus aureus VRSA, read-out: MIC; for MIC-fold improvement vs. vancomycin: VRSA, ratio of MIC of vancomycin and MIC of analogue
Procedure, shortened: as §2

MRSA KS2 = test: MIC, broth microdilution, MRSA KS2; type: cell-based, Staphylococcus aureus; conditions: for MIC: Staphylococcus aureus MRSA KS2, read-out: MIC
Procedure, shortened: as §2

MRSA KS6 = test: MIC, broth microdilution, MRSA KS6; type: cell-based, Staphylococcus aureus; conditions: for MIC-fold improvement vs. vancomycin: MRSA KS6, ratio of MIC of vancomycin and MIC of analogue; for MIC: Staphylococcus aureus MRSA KS6, read-out: MIC
Procedure, shortened: as §2

MRSA KS89 = test: MIC, broth microdilution, MRSA KS89; type: cell-based, Staphylococcus aureus; conditions: for MIC-fold improvement vs. vancomycin: MRSA KS8, ratio of MIC of vancomycin and MIC of analogue; for MIC: Staphylococcus aureus MRSA KS8, read-out: MIC
Procedure, shortened: as §2

MRSA KS1 = test: MIC, broth microdilution, MRSA KS1; type: cell-based, Staphylococcus aureus; conditions: for MIC: Staphylococcus aureus MRSA KS1, read-out: MIC
Procedure, shortened: as §2

[6] = test system: Clostridium difficile ATJ ribotype 014/20; test: MIC, plate drop assay, C. difficile ATJ ribotype 014/20; type: cell-based; conditions: for MIC-fold improvement vs. vancomycin: C. difficile ATJ ribotype 014/20
Description: (§4) Bacterial lawns of both C. difficile strains were prepared by adding 0.5 mL overnight culture to 8 mL sloppy BHI agar (0.4% agar) supplemented with 1.5 g/L CaCl2⋅2H2O and 81.2 g/L MgCl2⋅6H2O, and pouring the mixture into Petri plates. A twofold dilution series of the selected vancomycin analogs, vancomycin ([…]) and daptomycin (25 μM) was spotted (10 μL) on the bacterial lawn. Spots were air-dried and the plates were incubated overnight at 37°C in an anaerobic cabinet. Ultrapure water was included as negative control. The assay was performed in triplicate. Inhibition was observed by cleared spots.

[7] = test system: Clostridium difficile AIU ribotype 027; test: MIC, plate drop assay, C. difficile AIU ribotype 027; type: cell-based; conditions: for MIC-fold improvement vs. vancomycin: C. difficile AIU ribotype 027
Description: as §4

[8] = ratio of MIC of vancomycin and MIC of analogue
[9] = Enterococcus faecalis VSE 1 (vancomycin-sensitive)
[10] = Enterococcus faecalis VRE 6 (vancomycin-resistant)
[11] = Enterococcus faecalis VRE 53 (vancomycin-resistant)
[12] = average of L1210, CEM and HeLa, read-out: Toxicity (IC50) Average

Row | SMILES | MIC (E. faecalis VSE 1; [9]) [µM] | MIC-fold improvement vs. vancomycin (E. faecalis VSE 1; [8]) | MIC (E. faecalis VRE 6; [10]) [µM] | MIC-fold improvement vs. vancomycin (E. faecalis VRE 6; [8]) | MIC (E. faecalis VRE 53; [11]) [µM] | MIC-fold improvement vs. vancomycin (E. faecalis VRE 53; [8]) | MIC (E. faecalis VRE 29) [µM] | MIC-fold improvement vs. vancomycin (E. faecalis VRE 29) | MIC (E. faecalis VRE 37) [µM] | MIC-fold improvement vs. vancomycin (E. faecalis VRE 37) | IC50 [1] [µM] | IC50 [2] [µM] | IC50 [3] [µM] | IC50 [4, 12] [µM] | MIC [5] [µM] | MIC (S. aureus VISA/HIP5827) [µM] | MIC-fold improvement vs. vancomycin (S. aureus VISA/HIP5827) | MIC (S. aureus VRSA) [µM] | MIC-fold improvement vs. vancomycin (S. aureus VRSA) | MIC (MRSA KS2) [µM] | other results
1 | C#CCCC(=O)NCCCNC(=O)C1NC(=O)C2NC(=O)C(NC(=O)C3NC(=O)C(CC(N)=O)NC(=O)C(NC(=O)C(CC(C)C)NC)C(O)c4ccc(c(Cl)c4)Oc4cc3cc(c4OC3OC(CO)C(O)C(O)C3OC3CC(C)(N)C(O)C(C)O3)Oc3ccc(cc3Cl)C2O)c2ccc(O)c(c2)-c2c(O)cc(O)cc21 (stereo not shown) [Vanc-B] | 0.78 (≈ 1.24 µg/mL) | 2 | 50 (≈ 79.3 µg/mL) | 4 | 12.5 (≈ 19.8 µg/mL) | 32 | 100 (≈ 159 µg/mL) | 4 | 100 (≈ 159 µg/mL) | 8 | > 250 | > 250 | > 250 | > 250 | 0.78 (≈ 1.24 µg/mL) | 3.13 (≈ 4.96 µg/mL) | 2 | 12.5 (≈ 19.8 µg/mL) | 8 | 0.78 (≈ 1.24 µg/mL) | MIC (B. subtilis PSB3): 0.20 µM (≈ 0.317 µg/mL); MICvanc/MICi (B. subtilis PSB3; [8]): 2; MIC (E. coli XL-1 blue MRF'): 25 µM (≈ 39.6 µg/mL); MICvanc/MICi (E. coli XL-1 blue MRF'; [8]): 4; MICvanc/MICi (E. faecalis VSE 1; E. faecalis VSE 1, ratio of MIC of vancomycin and MIC of analogue): 2; MIC (E. faecalis VSE 1; E. faecalis VSE 1): 0.78 µM (≈ 1.24 µg/mL); MICvanc/MICi (E. faecalis VRE 6; E. faecalis VRE 6, ratio of MIC of vancomycin and MIC of analogue): 4; MIC (E. faecalis VRE 6; E. faecalis VRE 6): 50 µM (≈ 79.3 µg/mL); MICvanc/MICi (E. faecalis VRE 53; E. faecalis VRE 53, ratio of MIC of vancomycin and MIC of analogue): 32; MIC (E. faecalis VRE 53; E. faecalis VRE 53): 12.5 µM (≈ 19.8 µg/mL); IC50 ([4]; summary over the three cell lines, read-out: IC50 (L1210, CEM, HeLa), depending on the cell line used): > 250 µM; MIC-fold improvement vs. vancomycin (MRSA KS6): 0.5; MIC (MRSA KS6): 1.56 µM (≈ 2.47 µg/mL); MIC-fold improvement vs. vancomycin (MRSA KS89): 1; MIC (MRSA KS89): 1.56 µM (≈ 2.47 µg/mL); MIC (MRSA KS1): 0.78 µM (≈ 1.24 µg/mL)
2 | CCCCC#Cc1ccc(/C=C/C(=O)NCCNC(=O)[C@H]2NC(=O)[C@H]3NC(=O)[C@H](NC(=O)[C@@H]4NC(=O)[C@H](CC(N)=O)NC(=O)[C@H](NC(=O)[C@@H](CC(C)C)NC)[C@H](O)c5ccc(c(Cl)c5)Oc5cc4cc(c5O[C@@H]4O[C@H](CO)[C@@H](O)[C@H](O)[C@H]4O[C@H]4C[C@](C)(N)[C@H](O)[C@H](C)O4)Oc4ccc(cc4Cl)[C@H]3O)c3ccc(O)c(c3)-c3c(O)cc(O)cc32)cc1 [Vanc-48] | 0.78 (≈ 1.33 µg/mL) | 2 | 1.56 (≈ 2.65 µg/mL) | 128 | 6.25 (≈ 10.6 µg/mL) | 64 | 3.13 (≈ 5.33 µg/mL) | 128 | 3.13 (≈ 5.33 µg/mL) | 128 | 142 ± 21 | 83 ± 11 | > 250 | 158 | 0.20 (≈ 0.34 µg/mL) | 1.56 (≈ 2.65 µg/mL) | 4 | 1.56 (≈ 2.65 µg/mL) | 64 | 0.20 (≈ 0.34 µg/mL) | MIC-fold improvement vs. vancomycin ([5]; VSSA, ratio of MIC of vancomycin and MIC of analogue): 4; MIC-fold improvement vs. vancomycin (MRSA KS2; MRSA KS2, ratio of MIC of vancomycin and MIC of analogue): 4; MIC-fold improvement vs. vancomycin (MRSA KS6): 0.25; MIC (MRSA KS6): 3.13 µM (≈ 5.33 µg/mL); MIC-fold improvement vs. vancomycin (MRSA KS89): 2; MIC (MRSA KS89): 0.39 µM (≈ 0.664 µg/mL); MIC-fold improvement vs. vancomycin (MRSA KS1; MRSA KS1, ratio of MIC of vancomycin and MIC of analogue): >8; MIC (MRSA KS1): <0.10 µM; MIC-fold improvement vs. vancomycin [6]: up to 45; MIC ([6]; C. difficile ATJ ribotype 014/20, plate drop assay): 0.78 µM (≈ 1.33 µg/mL); MIC-fold improvement vs. vancomycin ([6]; listed as Vanc- 48): 45; MIC-fold improvement vs. vancomycin [7]: ≤ 58; MIC ([7]; C. difficile AIU ribotype 027, plate drop assay): 0.78 µM (≈ 1.33 µg/mL); MIC-fold improvement vs. vancomycin ([7]; listed as Vanc- 48): 58

From article PMC6001238, “Iterative Chemical Engineering of Vancomycin Leads to Novel Vancomycin Analogs With a High in Vitro Therapeutic Index” (Frontiers in Microbiology, 2018)
